This note sets out measurements from patent US6093838A, “Amines substituted with a dihydro-benzofuranyl or with a dihydro-isobenzofuranyl group, an aryl or heteroaryl group and an alkyl group, having retinoid-like biological activity” (Allergan Sales, Inc., priority 1999, dated 2000).

For assay [1], the target named is T1, RXRβ (Mus musculus, UniProt P28704).
T1 construct: expressed in transfected cells
T1 sequence (P28704 1-520): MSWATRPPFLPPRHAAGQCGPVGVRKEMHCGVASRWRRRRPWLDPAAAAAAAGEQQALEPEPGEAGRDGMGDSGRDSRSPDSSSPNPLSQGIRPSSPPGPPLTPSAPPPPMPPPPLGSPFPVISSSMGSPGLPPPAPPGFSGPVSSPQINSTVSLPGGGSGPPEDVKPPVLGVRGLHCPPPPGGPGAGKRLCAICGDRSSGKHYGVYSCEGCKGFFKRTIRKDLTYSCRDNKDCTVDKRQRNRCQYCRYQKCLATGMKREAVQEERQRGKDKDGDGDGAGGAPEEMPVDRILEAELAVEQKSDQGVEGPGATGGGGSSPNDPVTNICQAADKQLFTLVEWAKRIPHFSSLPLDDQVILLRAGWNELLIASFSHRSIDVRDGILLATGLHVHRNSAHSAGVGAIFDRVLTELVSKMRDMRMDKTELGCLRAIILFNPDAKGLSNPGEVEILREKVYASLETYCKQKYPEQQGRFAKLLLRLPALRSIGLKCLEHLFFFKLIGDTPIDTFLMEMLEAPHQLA
Nature of the assay: holoreceptor transactivation assay, RXRβ. Type of assay: cell-based. Conditions: for EC50: holoreceptor transactivation, RXRβ, read-out: RXR Trans. EC50 β; for Emax: relative to 10^-6 M cyclopropyl penta-2,4-dienoic acid reference (RXRs), read-out: % efficacy (RXRβ transactivation). From the text: (§1) Other assays described below, measure the ability of the compounds of the present invention to bind to, and/or activate various retinoid receptor subtypes. When in these assays a compound binds to a given receptor subtype and activates the transcription of a reporter gene through that subtype, then the compound is considered an agonist of that receptor subtype. […] In the below described assays the ability of the compounds to bind to RARα, RARβ, RARγ, RXRα, RXRβ and RXRγ receptors, and the ability or inability of the compounds to activate transcription of a reporter gene through these receptor subtypes can be tested. […] However, some of the compounds of the invention may behave as retinoid antagonists or partial antagonists and/or as inverse agonists. Because of the complex distribution of the different retinoid receptors in various organs of the mammalian body partial agonists and partial antagonists and compounds which have the characteristics of both may lend themselves to particularly useful therapeutic applications and may avoid serious side effects of conventional retinoid drugs.
(§2) A holoreceptor transactivation assay and a ligand binding assay which measure the antagonist/agonist like activity of the compounds of the invention, or their ability to bind to the several retinoid receptor subtypes, respectively, are described in published PCT Application No. WO WO93/11755 (particularly on pages 30-33 and 37-41) published on Jun. 24, 1993, the specification of which is also incorporated herein by reference. A detailed experimental procedure for holoreceptor transactivations has been described by Heyman et al. Cell 68, 397-406, (1992); Allegretto et al. J. Biol. Chem. 268, 26625-26633, and Mangelsdorf et al. The Retinoids: Biology, Chemistry and Medicine, pp 319-349, Raven Press Ltd., New York, which are expressly incorporated herein by reference. The results obtained in this assay are expressed in EC50 numbers, as they are also in the chimeric receptor transactivation assay. The results of ligand binding assay are expressed in Kd numbers. (See Cheng et al. Biochemical Pharmacology Vol. 22 pp 3099-3108, expressly incorporated herein by reference.)
(§3) Table 1 discloses the activity of certain exemplary compounds of the invention in the above-described chimeric receptor transactivation assay, holoreceptor transactivation assay and a ligand binding assays. Particularly, the transactivation data pertaining to RAR receptors were obtained in the chimeric assay, and the data pertaining to transactivation of RXR receptors were obtained in the holoreceptor transactivation assay.

In assay [2] the target is T2, RXRγ (Mus musculus, UniProt P28705).
T2 construct: expressed in transfected cells
T2 sequence (P28705 1-463): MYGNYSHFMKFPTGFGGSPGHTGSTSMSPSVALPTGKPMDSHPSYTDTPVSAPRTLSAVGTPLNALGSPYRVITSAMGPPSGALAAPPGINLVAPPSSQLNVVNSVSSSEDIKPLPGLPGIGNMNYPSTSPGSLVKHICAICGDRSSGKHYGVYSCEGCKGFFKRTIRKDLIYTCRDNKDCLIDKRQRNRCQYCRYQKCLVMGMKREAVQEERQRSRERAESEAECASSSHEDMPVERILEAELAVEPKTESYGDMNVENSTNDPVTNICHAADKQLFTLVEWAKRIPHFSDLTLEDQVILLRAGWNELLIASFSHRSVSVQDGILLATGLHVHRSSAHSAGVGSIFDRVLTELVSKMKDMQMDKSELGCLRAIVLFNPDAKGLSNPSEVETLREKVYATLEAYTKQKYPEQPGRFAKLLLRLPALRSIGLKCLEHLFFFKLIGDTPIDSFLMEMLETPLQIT
Nature of the assay: holoreceptor transactivation assay, RXRγ. The settings on record: for EC50: holoreceptor transactivation, RXRγ, read-out: RXR Trans. EC50 γ; for Emax: relative to 10^-6 M cyclopropyl penta-2,4-dienoic acid reference (RXRs), read-out: % efficacy (RXRγ transactivation). It counts as cell-based.
Description: as §1, §2, §3

Assay [3] deals with T3, RARα (Homo sapiens, UniProt P10276).
T3 sequence (P10276 1-462): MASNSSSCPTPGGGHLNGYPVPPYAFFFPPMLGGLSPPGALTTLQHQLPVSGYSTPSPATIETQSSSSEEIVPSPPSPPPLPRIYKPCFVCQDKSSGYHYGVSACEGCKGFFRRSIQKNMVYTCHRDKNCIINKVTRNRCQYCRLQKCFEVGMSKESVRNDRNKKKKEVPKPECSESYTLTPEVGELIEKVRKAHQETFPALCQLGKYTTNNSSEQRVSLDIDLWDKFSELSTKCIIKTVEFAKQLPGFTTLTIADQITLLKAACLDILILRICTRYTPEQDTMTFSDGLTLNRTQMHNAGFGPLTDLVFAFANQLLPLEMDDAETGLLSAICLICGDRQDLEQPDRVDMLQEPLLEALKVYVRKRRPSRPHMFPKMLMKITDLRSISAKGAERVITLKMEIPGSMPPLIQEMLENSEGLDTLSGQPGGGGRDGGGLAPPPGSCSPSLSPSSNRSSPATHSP
Briefly: ligand binding assay, RARα.
Description: as §1, §2, §3

Assay [4] has as its target T4, RXRα (Homo sapiens, UniProt P19793).
T4 construct: expressed in transfected cells
T4 sequence (P19793 1-462): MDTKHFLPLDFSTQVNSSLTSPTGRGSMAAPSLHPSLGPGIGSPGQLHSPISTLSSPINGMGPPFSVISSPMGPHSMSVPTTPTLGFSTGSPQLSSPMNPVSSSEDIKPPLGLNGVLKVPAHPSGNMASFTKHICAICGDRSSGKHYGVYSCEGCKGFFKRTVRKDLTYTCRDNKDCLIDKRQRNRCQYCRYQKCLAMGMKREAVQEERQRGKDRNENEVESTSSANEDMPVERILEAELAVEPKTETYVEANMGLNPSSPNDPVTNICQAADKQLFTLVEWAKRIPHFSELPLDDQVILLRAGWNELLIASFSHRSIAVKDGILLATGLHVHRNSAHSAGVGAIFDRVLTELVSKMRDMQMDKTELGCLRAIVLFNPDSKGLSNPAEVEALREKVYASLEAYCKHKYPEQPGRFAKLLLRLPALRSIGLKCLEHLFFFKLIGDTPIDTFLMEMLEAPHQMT
Briefly: ligand binding assay, RXRα. The settings on record: read-out: RXR Bind Ki α.
Description: as §1, §2, §3

The structures appear in SMILES notation. Where two headings read alike, the source gives them in different places.

The term EC50 denotes the concentration giving half of the maximal effect. By Ki is commonly meant a dissociation constant, usually derived from enzyme kinetics or from competition with a known ligand. Take `Cc1c(N(c2ccc(C(=O)O)cc2)C(C)C)cc2c(c1C(C)(C)C)OCC2(C)C` [Compound 73, 4-[Isopropyl-(7-t-butyl-3,3,6-trimethyl-2,3-dihydro-benzofuran-5-yl)-amino]-benzoic acid]: the values for the EC50 in assay [1] and in assay [2] were 71 nM and 17 nM, respectively. Also, the Emax is 92% in assay [1] and 97% in assay [2]. The figures for the Ki in assay [3] (read-out: RAR Bind. Ki α) and in assay [4] were 12000 nM and 71 nM, respectively.

Consider `CCc1cc(N(c2ccc(C(=O)O)cc2)C(C)C)cc2c1OCC2(C)C` [Compound 42, 4-[Isopropyl-(3,3-dimethyl-7-ethyl-2,3-dihydro-benzofuran-5-yl)-amino]-benzoic acid], for which the EC50 is greater than 1000 nM in assay [1] and 511 nM in assay [2]. The values for the Emax in assay [1] and in assay [2] were 30% and 132%, respectively. Further, the results for the Ki in assay [3] (read-out: RAR Bind. Ki α) and in assay [4] were greater than 10000 nM and greater than 1000 nM, respectively.

For the molecule `CCCN(c1ccc(C(=O)O)cc1)c1ccc2c(c1)C(C)(C)OC2(C)C` [Compound 84, 4-[n-Propyl-(1,1,3,3-tetramethyl-1,3-dihydro-isobenzofuran-5-yl)-amino]-benzoic acid], the EC50 worked out at 1000 nM in assay [1] and 51 nM in assay [2]. For the same molecule, the Emax in assay [1] is 184%; in assay [2], 124%. Also, the inhibition constant Ki is greater than 10000 nM in assay [3] (heading: RAR Bind. Ki α) and 1500 nM in assay [4].

With `CCCCN(c1ccc(C(=O)O)cc1)c1ccc2c(c1)C(C)(C)OC2(C)C` [Compound 85, 4-[n-Butyl-(1,1,3,3-tetramethyl-1,3-dihydro-isobenzofuran-5-yl)-amino]-benzoic acid], the EC50 in assay [1] is 1000 nM; in assay [2] it was 700 nM. Moreover, the Emax was 60% in assay [1] and 197% in assay [2]. Also, the values for the Ki in assay [3] (read-out: RAR Bind. Ki α) and in assay [4] were greater than 10000 nM and greater than 1000 nM, respectively.

Turning to `CCN(c1ccc(C(=O)O)cc1)c1ccc2c(c1)C(C)(C)OC2(C)C` [Compound 83, 4-[Ethyl-(1,1,3,3-tetramethyl-1,3-dihydro-isobenzofuran-5-yl)-amino]-benzoic acid], the EC50 in assay [1] is 1000 nM; in assay [2], 63 nM. The Emax was determined as 100% in assay [1] and 140% in assay [2]. In addition, the values for the Ki in assay [3] (read-out: RAR Bind. Ki α) and in assay [4] were greater than 10000 nM and 1000 nM, respectively.

For the molecule `CC(C)N(c1ccc(C(=O)O)cc1)c1ccc2c(c1)C(C)(C)OC2(C)C` [Compound 87, 4-[i-Propyl-(1,1,3,3-tetramethyl-1,3-dihydro-isobenzofuran-5-yl)-amino]-benzoic acid], the EC50 in assay [1] worked out at 1000 nM; in assay [2] it was 765 nM. Also, the Emax in assay [1] was found to be 65%; in assay [2] it was 134%. The figures for the Ki in assay [3] (read-out: RAR Bind. Ki α) and in assay [4] were greater than 10000 nM and 650 nM, respectively.

Turning to `CCN(c1ccc(C(=O)O)cc1)c1cc(C(C)(C)C)c2c(c1)C(C)(C)CO2` [Compound 32, 4-[Ethyl-(7-t-butyl-3,3-dimethyl-2,3-dihydro-benzofuran-5-yl)-amino]-benzoic acid], the EC50 in assay [1] amounted to 1000 nM; in assay [2], 230 nM. The Emax in assay [1] came out at 50%; in assay [2], 122%. Further, the Ki in assay [3] (read-out: RAR Bind. Ki α) was greater than 1000 nM; in assay [4] it was 222 nM.

For the molecule `CCN(c1ccc(C(=O)O)cc1)c1cc(C)c2c(c1)C(C)(C)CO2` [Compound 27, 4-[Ethyl-(3,3,7-trimethyl-2,3-dihydro-benzofuran-5-yl)-amino]-benzoic acid], the concentration giving a half-maximal response (EC50) in assay [1] and in assay [2] was greater than 1000 nM each time. Further, the Ki came out at 30000 nM in assay [3] (read-out: RAR Bind. Ki α) and 15000 nM in assay [4].

Consider `CC(C)c1cc(N(C)c2ccc(C(=O)O)cc2)cc2c1OCC2(C)C` [Compound 30, 4-[Methyl-(3,3-dimethyl-7-isopropyl-2,3-dihydro-benzofuran-5-yl)-amino]-benzoic acid], for which the concentration for a half-maximal effect (EC50) in assay [1] and in assay [2] was greater than 1000 nM each time. Moreover, the Emax in assay [1] was 10%; in assay [2] it was 70%. Moreover, the Ki was determined as 16000 nM in assay [3] (read-out: RAR Bind. Ki α) and 11000 nM in assay [4].
